Experimental data published in patent US20230278981A1, “DICHLOROPHENOL HSD17B13 INHIBITORS AND USES THEREOF” (INIPHARM, INC., priority 2020, published 2023).

Each compound was assayed against HSD17B13 (Homo sapiens (Human), UniProt Q7Z5P4) (assay: LC/MS estrone detection assay: conversion of estradiol to estrone by HSD17B13). Conditions: 4 μM estradiol, 6 mM NAD+, 30 nM HSD17B13 enzyme (E. coli expressed His-tagged), 2 hours at 26.5° C.
Type: biochemical
In short: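 His-tagged E. coli-expressed HSD17B13 (30 nM) with 4 μM estradiol and 6 mM NAD+ in 1 M potassium phosphate pH 7.4, 0.5% DMSO, 2 h at 26.5° C. Estrone and estradiol quantified by LC-MS/MS after MeCN quench with D4-estrone internal standard; activity as % of uninhibited enzyme, IC50 by four-parameter fit, duplicates.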

Sequence of HSD17B13 (Q7Z5P4 20-300): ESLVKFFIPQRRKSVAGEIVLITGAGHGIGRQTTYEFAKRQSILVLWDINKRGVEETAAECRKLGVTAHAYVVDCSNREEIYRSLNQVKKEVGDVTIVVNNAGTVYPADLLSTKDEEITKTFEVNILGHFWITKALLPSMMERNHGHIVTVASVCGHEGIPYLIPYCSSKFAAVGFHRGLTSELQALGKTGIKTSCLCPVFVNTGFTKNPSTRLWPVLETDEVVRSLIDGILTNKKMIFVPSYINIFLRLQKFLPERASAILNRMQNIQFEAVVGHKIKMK

| IC50 [nM] | SMILES |
| --- | --- |
| 100 to 500 | Cc1ccc(NC(=O)c2cc(Cl)c(O)c(Cl)n2)c2c(=O)n(Cc3ccccc3C(F)(F)F)c(C)nc12 [Example 163, 4,6-dichloro-N-(2,8-dimethyl-4-oxo-3-(2-(trifluoromethyl)benzyl)-3,4-dihydroquinazolin-5-yl)-5-hydroxypicolinamide] |
| 100 to 500 | Cc1ccc(NC(=O)c2cc(Cl)c(O)c(Cl)n2)c2c(=O)n(Cc3ccccc3C(F)(F)F)c(C(F)F)nc12 [Example 181, 4,6-dichloro-N-(2-(difluoromethyl)-8-methyl-4-oxo-3-(2-(trifluoromethyl)benzyl)-3,4-dihydroquinazolin-5-yl)-5-hydroxypicolinamide] |
| 100 to 500 | Cc1nc2c(Cl)ccc(NC(=O)c3cc(Cl)c(O)c(Cl)n3)c2c(=O)n1Cc1ccccc1C(F)(F)F [Example 170, 4,6-dichloro-N-(8-chloro-2-methyl-4-oxo-3-(2-(trifluoromethyl)benzyl)-3,4-dihydroquinazolin-5-yl)-5-hydroxypicolinamide] |
| 1000 to 10000 | O=C(Nc1cccc2ncn(Cc3ccccc3N3CCS(=O)(=O)CC3)c(=O)c12)c1cc(Cl)c(O)c(Cl)c1 [Example 83, 3,5-dichloro-N-(3-(2-(1,1-dioxidothiomorpholino)benzyl)-4-oxo-3,4-dihydroquinazolin-5-yl)-4-hydroxybenzamide] |
| ≤ 100 | Cc1ccc(NC(=O)c2cc(Cl)c(O)c(Cl)c2)c2c(=O)n(Cc3ccccc3OC(F)(F)F)cnc12 [Example 88, 3,5-dichloro-4-hydroxy-N-(8-methyl-4-oxo-3-(2-(trifluoromethoxy)benzyl)-3,4-dihydroquinazolin-5-yl)benzamide] |
| 100 to 500 | Cn1ccc(-c2ccccc2Cn2cnc3cccc(NC(=O)c4cc(Cl)c(O)c(Cl)c4)c3c2=O)n1 [Example 105, 3,5-dichloro-4-hydroxy-N-(3-(2-(1-methyl-1H-pyrazol-3-yl)benzyl)-4-oxo-3,4-dihydroquinazolin-5-yl)benzamide] |
| ≤ 100 | O=C(Nc1cccc2ncn(Cc3ccn(-c4ccccc4F)n3)c(=O)c12)c1cc(Cl)c(O)c(Cl)c1 [Example 76, 3,5-dichloro-N-(3-((1-(2-fluorophenyl)-1H-pyrazol-3-yl)methyl)-4-oxo-3,4-dihydroquinazolin-5-yl)-4-hydroxybenzamide] |
| 1000 to 10000 | CS(=O)(=O)c1ccc(Cn2cnc3cccc(NC(=O)c4cc(Cl)c(O)c(Cl)c4)c3c2=O)cc1 [Example 59, 3,5-dichloro-4-hydroxy-N-(3-(4-(methylsulfonyl)benzyl)-4-oxo-3,4-dihydroquinazolin-5-yl)benzamide] |
| 500 to 1000 | CS(=O)(=O)c1ccccc1Cn1cnc2cccc(NC(=O)c3cc(Cl)c(O)c(Cl)n3)c2c1=O [Example 79, 4,6-dichloro-5-hydroxy-N-(3-(2-(methylsulfonyl)benzyl)-4-oxo-3,4-dihydroquinazolin-5-yl)picolinamide] |
| 500 to 1000 | O=C(Nc1cccc2ncn(Cc3cocn3)c(=O)c12)c1cc(Cl)c(O)c(Cl)c1 [Example 15, 3,5-dichloro-4-hydroxy-N-(3-(oxazol-4-ylmethyl)-4-oxo-3,4-dihydroquinazolin-5-yl)benzamide] |
| 1000 to 10000 | O=C(Nc1cccc2ncn(Cc3cccc(OC(F)(F)F)c3)c(=O)c12)c1ccc(Cl)c(O)c1Cl [Example 65, 2,4-dichloro-3-hydroxy-N-(4-oxo-3-(3-(trifluoromethoxy)benzyl)-3,4-dihydroquinazolin-5-yl)benzamide] |
| 100 to 500 | O=C(Nc1cccc2ncn(Cc3ccccc3OC(F)(F)F)c(=O)c12)c1cc(Cl)c(O)c(Cl)n1 [Example 23, 4,6-dichloro-5-hydroxy-N-(4-oxo-3-{[2-(trifluoromethoxy)phenyl]methyl}-3,4-dihydroquinazolin-5-yl)pyridine-2-carboxamide] |
| 100 to 500 | Cn1nc(NC(=O)c2cc(Cl)c(O)c(Cl)n2)c2c(=O)n(Cc3ccccc3OC(F)(F)F)cnc21 [Example 119, 4,6-dichloro-5-hydroxy-N-(1-methyl-4-oxo-5-(2-(trifluoromethoxy)benzyl)-4,5-dihydro-1H-pyrazolo[3,4-d]pyrimidin-3-yl)picolinamide] |
| ≤ 100 | O=C(Nc1cccc2ncn(Cc3ccccc3N3CCOCC3)c(=O)c12)c1cc(Cl)c(O)c(Cl)c1 [Example 84, 3,5-dichloro-4-hydroxy-N-(3-(2-morpholinobenzyl)-4-oxo-3,4-dihydroquinazolin-5-yl)benzamide] |
| ≤ 100 | O=C(Nc1ccc(F)c2ncn(Cc3ccccc3C(F)(F)F)c(=O)c12)c1cc(Cl)c(O)c(Cl)c1 [Example 204, 3,5-dichloro-N-(8-fluoro-4-oxo-3-(2-(trifluoromethyl)benzyl)-3,4-dihydroquinazolin-5-yl)-4-hydroxybenzamide] |
| 500 to 1000 | Cn1nc(NC(=O)c2cc(Cl)c(O)c(Cl)n2)c2c(=O)n(Cc3ccccc3)cnc21 [Example 107, N-(5-benzyl-1-methyl-4-oxo-4,5-dihydro-1H-pyrazolo[3,4-d]pyrimidin-3-yl)-4,6-dichloro-5-hydroxypicolinamide] |
| ≤ 100 | Cc1nc2cccc(NC(=O)c3cc(Cl)c(O)c(Cl)c3)c2c(=O)n1Cc1ccccc1OC(F)(F)F [Example 64, 3,5-dichloro-4-hydroxy-N-(2-methyl-4-oxo-3-(2-(trifluoromethoxy)benzyl)-3,4-dihydroquinazolin-5-yl)benzamide] |
| 100 to 500 | O=C(Nc1cccc2ncn(Cc3cccnc3OC(F)(F)F)c(=O)c12)c1cc(Cl)c(O)c(Cl)c1 [Example 87, 3,5-dichloro-4-hydroxy-N-(4-oxo-3-((2-(trifluoromethoxy)pyridin-3-yl)methyl)-3,4-dihydroquinazolin-5-yl)benzamide] |

More lines, now with the values behind:

| SMILES | IC50 [nM] |
| --- | --- |
| O=C(Nc1scnc1C(=O)NCc1ncccc1C(F)(F)F)c1cc(Cl)c(O)c(Cl)n1 [Example 196, 5-(4,6-dichloro-5-hydroxypicolinamido)-N-((3-(trifluoromethyl)pyridin-2-yl)methyl)thiazole-4-carboxamide] | 100 to 500 |
| O=C(Nc1cnccc1C(=O)NCc1ccccc1OC(F)(F)F)c1cc(Cl)c(O)c(Cl)c1 [Example 73, 3-(3,5-dichloro-4-hydroxybenzamido)-N-(2-(trifluoromethoxy)benzyl) isonicotinamide] | 100 to 500 |
| Cc1ccc(NC(=O)c2cc(Cl)c(O)c(Cl)c2)c2c(=O)n(Cc3ccccc3OC(F)(F)F)c(C(F)(F)F)nc12 [Example 112, 3,5-dichloro-4-hydroxy-N-(8-methyl-4-oxo-3-(2-(trifluoromethoxy)benzyl)-2-(trifluoromethyl)-3,4-dihydroquinazolin-5-yl)benzamide] | 100 to 500 |
| Cc1nc2c(F)ccc(NC(=O)c3cc(Cl)c(O)c(Cl)n3)c2c(=O)n1[C@H]1CC[C@@H]1c1ccccc1 [Example 207, 4,6-dichloro-N-(8-fluoro-2-methyl-4-oxo-3-((1S,2R)-2-phenylcyclobutyl)-3,4-dihydroquinazolin-5-yl)-5-hydroxypicolinamide] | 100 to 500 |
| [2H]C([2H])(c1ccccc1C(F)(F)F)n1c(C)nc2c(C)ccc(NC(=O)c3cc(Cl)c(O)c(Cl)c3)c2c1=O [Example 200, 3,5-dichloro-N-(2,8-dimethyl-4-oxo-3-((2-(trifluoromethyl)phenyl)methyl-d2)-3,4-dihydroquinazolin-5-yl)-4-hydroxybenzamide] | ≤ 100 |
| O=C(Nc1scnc1C(=O)NCc1cccc(F)c1)c1cc(Cl)c(O)c(Cl)c1 [Example 34, 5-(3,5-dichloro-4-hydroxybenzamido)-N-(3-fluorobenzyl)thiazole-4-carboxamide] | ≤ 100 |
| Cn1nc(NC(=O)c2cc(Cl)c(O)c(Cl)c2)c2c(=O)n(Cc3ccccc3)cnc21 [Example 99, N-(5-benzyl-1-methyl-4-oxo-4,5-dihydro-1H-pyrazolo[3,4-d]pyrimidin-3-yl)-3,5-dichloro-4-hydroxybenzamide] | 1000 to 10000 |
| Cc1ccc(NC(=O)c2cc(Cl)c(O)c(Cl)n2)c2c(=O)n(Cc3cccnc3C(F)(F)F)c(C)nc12 [Example 147, 4,6-dichloro-N-(2,8-dimethyl-4-oxo-3-((2-(trifluoromethyl)pyridin-3-yl)methyl)-3,4-dihydroquinazolin-5-yl)-5-hydroxypicolinamide] | 100 to 500 |
| Cc1ccc(NC(=O)c2cc(Cl)c(O)c(Cl)c2)c2c(=O)n(Cc3ccccc3C(F)(F)F)c(C)nc12 [Example 151, 3,5-dichloro-N-(2,8-dimethyl-4-oxo-3-(2-(trifluoromethyl)benzyl)-3,4-dihydroquinazolin-5-yl)-4-hydroxybenzamide] | ≤ 100 |
| CN(C)CCOc1ccc(NC(=O)c2cc(Cl)c(O)c(Cl)c2)c(C(=O)NCc2ccccc2OC(F)(F)F)c1 [Example 85, 3,5-dichloro-N-(4-(2-(dimethylamino)ethoxy)-2-((2-(trifluoromethoxy)benzyl)carbamoyl)phenyl)-4-hydroxybenzamide] | > 10000 |
| O=C(N[C@@H]1CCCC[C@H]1C(=O)NCc1ccccc1OC(F)(F)F)c1cc(Cl)c(O)c(Cl)n1 [Example 145, 4,6-dichloro-5-hydroxy-N-((1R, 2R)-2-((2-(trifluoromethoxy)benzyl)carbamoyl)cyclohexyl)picolinamide] | 1000 to 10000 |
| O=C(Nc1sc(Cl)cc1C(=O)NCCc1ccccc1OC(F)(F)F)c1cc(Cl)c(O)c(Cl)c1 [Example 38, 5-chloro-2-(3,5-dichloro-4-hydroxybenzamido)-N-(2-(trifluoromethoxy)phenethyl) thiophene-3-carboxamide] | 100 to 500 |
| O=C(Nc1ncsc1C(=O)NCc1ccccc1F)c1cc(Cl)c(O)c(Cl)c1 [Example 24, 4-(3,5-dichloro-4-hydroxybenzamido)-N-(2-fluorobenzyl)thiazole-5-carboxamide] | 1000 to 10000 |
| Cc1nc2c(F)ccc(NC(=O)c3cc(Cl)c(O)c(Cl)c3)c2c(=O)n1Cc1cccc(C(F)(F)F)n1 [Example 197, 3,5-dichloro-N-(8-fluoro-2-methyl-4-oxo-3-((6-(trifluoromethyl)pyridin-2-yl)methyl)-3,4-dihydroquinazolin-5-yl)-4-hydroxybenzamide] | 500 to 1000 |
